Reference: ChEMBL document CHEMBL1828504, “Synthesis and SAR optimization of diketo acid pharmacophore for HCV NS5B polymerase inhibition” (Eur J Med Chem, 2011)

Experiment: Inhibition of recombinant HCV NS5B Cdelta21 polymerase assessed as [alpha-32P]UMP incorporation into RNA after 1 hr by liquid scintillation counting
Parameters: species or system Hepacivirus hominis
Work on `Cc1ccsc1C(=O)/C=C(\O)C(=O)O` yielded an IC50 of 7.5 µM. `O=C(O)/C(O)=C/C(=O)c1ccco1` showed an IC50 of 21.8 µM. Work on `O=C(O)/C(O)=C/C(=O)c1cc2ccccc2o1` yielded an IC50 of 29.6 µM. For `O=C(O)/C(O)=C/C(=O)c1cc2cc(Br)ccc2o1`, the IC50 was 8.2 µM. In the case of `O=C(O)/C(O)=C/C(=O)c1cc2ccccc2s1`, the IC50 is reported as 37.7 µM. Work on `O=C(O)/C(O)=C/C(=O)c1cccs1` yielded an IC50 of 17.3 µM. For `Cc1ccc(C(=O)/C=C(\O)C(=O)O)s1`, the IC50 was 55.5 µM. With `O=C(O)/C(O)=C/C(=O)c1ccc(Cl)s1` the IC50 was 25.5 µM. `O=C(O)/C(O)=C/C(=O)c1ccc(Br)s1` showed an IC50 of 31.4 µM. With `O=C(O)/C(O)=C/C(=O)c1ccc(I)s1` the IC50 was 63.9 µM. `Cc1csc(C(=O)/C=C(\O)C(=O)O)c1` gave an IC50 of 32.7 µM. With `O=C(O)/C(O)=C/C(=O)c1nccs1` the IC50 was 30.4 µM. `O=C(O)/C(O)=C/C(=O)c1ccc[nH]1` showed an IC50 of 21.7 µM. `CCOC(=O)/C(O)=C/C(=O)c1n[nH]c2ccccc12` showed an IC50 of 38.4 µM. For `O=C(O)/C(O)=C/C(=O)c1n[nH]c2ccccc12`, the IC50 was 24.7 µM. For `O=C(O)/C(O)=C/C(=O)c1ccc(-c2ccccc2)cc1`, the IC50 was 20.9 µM. For `O=C(O)/C(O)=C/C(=O)c1ccccc1[N+](=O)[O-]`, the IC50 was 11.3 µM. Molecule `CCOC(=O)/C(O)=C/C(=O)c1ccccc1F` has an IC50 of 12.4 µM. `Cc1ccccc1C(=O)/C=C(\O)C(=O)O` gave an IC50 of 6.9 µM. `O=C(O)/C(O)=C/C(=O)c1cccc(F)c1` gave an IC50 of 49.9 µM. In the case of `N#Cc1cccc(C(=O)/C=C(\O)C(=O)O)c1`, the IC50 is reported as 39.7 µM. Work on `O=C(O)/C(O)=C/C(=O)c1cccc(-c2nnn[nH]2)c1` yielded an IC50 of 5.2 µM. For `O=C(O)/C(O)=C/C(=O)c1c(F)cccc1F`, the IC50 was 17 µM. For `O=C(O)/C(O)=C/C(=O)c1ccc(Cl)cc1Cl`, the IC50 was 49.7 µM. `O=C(O)/C(O)=C/C(=O)c1ccc(F)cc1F` gave an IC50 of 2.4 µM. In the case of `O=C(O)/C(O)=C/C(=O)c1ccccc1F`, the IC50 is reported as 14.9 µM.
